The results in this text go back to patent US10077261B2, “Imidazolin-5-one derivative useful as FASN inhibitors for the treatment of cancer” (Janssen Pharmaceutica NV, priority 2012, dated 2018).

For the assay, the target named is T1, hFASN enzyme (full length) (Homo sapiens, UniProt P49327).
T1 construct: 10 μL hFASN enzyme (full length, 300 ng, purified in house); made in house
The assay can be described thus: Fatty Acid Synthase (FASN) inhibition scintillation proximity assay. Format: biochemical. The settings on record: for inhibition at 10 µM: read-out: Human FASN % inhibition @ 10 μM, 10 μM test compound; for IC50: read-out: Human FASN pIC50 (converted). A digest of the protocol:
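Read-out relies on hydrophobic ³H-palmitate product, formed from ³H-acetyl-CoA and malonyl-CoA, binding streptavidin imaging beads, measured at 610±20 nm after at least 24 h. Full-length enzyme (300 ng) in phosphate buffer pH 7.5 with DTT; eight compound concentrations, 0.01–30 μM.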
For orientation: In a scintillation proximity assay essentially only radioactivity close to the scintillant gives light.

T1 sequence (P49327 whole entry): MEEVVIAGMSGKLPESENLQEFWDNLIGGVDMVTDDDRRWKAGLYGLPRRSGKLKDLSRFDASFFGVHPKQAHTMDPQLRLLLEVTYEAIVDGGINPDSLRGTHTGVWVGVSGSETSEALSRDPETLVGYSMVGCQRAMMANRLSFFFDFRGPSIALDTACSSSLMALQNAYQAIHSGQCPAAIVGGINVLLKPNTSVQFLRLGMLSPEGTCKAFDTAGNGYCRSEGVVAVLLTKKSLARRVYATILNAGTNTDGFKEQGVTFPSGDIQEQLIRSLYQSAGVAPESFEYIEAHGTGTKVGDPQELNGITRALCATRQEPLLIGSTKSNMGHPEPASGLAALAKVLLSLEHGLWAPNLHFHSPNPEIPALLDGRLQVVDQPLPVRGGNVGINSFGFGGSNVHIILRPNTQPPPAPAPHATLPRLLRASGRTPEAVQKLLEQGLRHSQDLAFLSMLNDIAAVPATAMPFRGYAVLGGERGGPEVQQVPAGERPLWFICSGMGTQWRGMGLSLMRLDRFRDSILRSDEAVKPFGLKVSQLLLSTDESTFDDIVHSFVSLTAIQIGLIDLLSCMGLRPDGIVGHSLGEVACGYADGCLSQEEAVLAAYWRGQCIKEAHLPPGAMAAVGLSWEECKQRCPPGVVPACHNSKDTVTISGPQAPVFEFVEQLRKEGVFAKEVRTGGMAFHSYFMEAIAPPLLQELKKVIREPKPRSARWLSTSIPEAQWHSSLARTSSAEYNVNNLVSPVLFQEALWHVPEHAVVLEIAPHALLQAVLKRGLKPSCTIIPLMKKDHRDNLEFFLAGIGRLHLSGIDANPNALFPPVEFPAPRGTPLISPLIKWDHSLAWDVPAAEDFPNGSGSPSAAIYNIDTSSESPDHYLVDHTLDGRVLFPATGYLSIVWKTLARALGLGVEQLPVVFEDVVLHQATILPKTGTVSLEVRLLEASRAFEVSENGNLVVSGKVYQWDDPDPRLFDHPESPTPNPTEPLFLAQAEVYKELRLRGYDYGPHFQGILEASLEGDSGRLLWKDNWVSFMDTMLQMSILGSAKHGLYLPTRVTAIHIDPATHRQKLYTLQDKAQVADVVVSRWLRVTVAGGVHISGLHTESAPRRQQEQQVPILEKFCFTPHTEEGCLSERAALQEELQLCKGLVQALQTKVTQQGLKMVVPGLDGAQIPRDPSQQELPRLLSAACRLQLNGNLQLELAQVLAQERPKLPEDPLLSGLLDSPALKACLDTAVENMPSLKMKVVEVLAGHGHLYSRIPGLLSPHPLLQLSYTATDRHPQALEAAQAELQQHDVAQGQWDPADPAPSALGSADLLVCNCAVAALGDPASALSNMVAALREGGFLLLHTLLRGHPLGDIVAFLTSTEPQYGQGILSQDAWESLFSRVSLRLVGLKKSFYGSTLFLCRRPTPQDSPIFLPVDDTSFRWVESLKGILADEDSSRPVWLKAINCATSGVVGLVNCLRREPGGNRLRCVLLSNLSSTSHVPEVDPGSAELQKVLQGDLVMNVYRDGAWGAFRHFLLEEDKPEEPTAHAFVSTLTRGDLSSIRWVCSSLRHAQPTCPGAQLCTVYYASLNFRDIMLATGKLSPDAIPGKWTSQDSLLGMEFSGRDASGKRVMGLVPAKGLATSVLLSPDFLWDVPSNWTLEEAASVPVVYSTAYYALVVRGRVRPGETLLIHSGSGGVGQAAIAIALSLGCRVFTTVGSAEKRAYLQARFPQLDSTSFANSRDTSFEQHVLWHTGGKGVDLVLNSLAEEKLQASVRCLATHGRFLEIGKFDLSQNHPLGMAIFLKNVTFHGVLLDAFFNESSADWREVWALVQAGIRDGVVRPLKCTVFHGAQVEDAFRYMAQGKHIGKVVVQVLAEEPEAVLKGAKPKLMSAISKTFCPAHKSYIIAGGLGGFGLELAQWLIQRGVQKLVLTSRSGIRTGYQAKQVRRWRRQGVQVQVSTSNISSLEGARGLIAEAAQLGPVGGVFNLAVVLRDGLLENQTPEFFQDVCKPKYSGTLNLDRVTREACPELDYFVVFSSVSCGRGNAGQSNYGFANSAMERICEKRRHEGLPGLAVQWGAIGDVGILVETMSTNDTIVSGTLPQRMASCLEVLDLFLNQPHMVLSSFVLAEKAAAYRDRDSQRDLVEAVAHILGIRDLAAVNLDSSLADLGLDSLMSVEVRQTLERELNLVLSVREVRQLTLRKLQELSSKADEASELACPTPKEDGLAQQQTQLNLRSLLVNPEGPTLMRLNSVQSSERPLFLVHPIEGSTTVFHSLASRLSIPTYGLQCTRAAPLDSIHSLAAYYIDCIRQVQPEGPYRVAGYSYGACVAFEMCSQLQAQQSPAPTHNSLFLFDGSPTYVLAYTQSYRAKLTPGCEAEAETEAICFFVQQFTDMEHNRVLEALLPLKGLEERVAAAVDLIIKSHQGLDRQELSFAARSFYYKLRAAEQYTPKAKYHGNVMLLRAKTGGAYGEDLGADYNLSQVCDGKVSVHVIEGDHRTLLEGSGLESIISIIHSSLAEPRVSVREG

Regarding `CS(=O)(=O)N1CC[C@@H](CN2C(=O)C3(CCOC3)N=C2c2ccc(-c3ccc4occc4c3)cc2)C1` (stereo partly drawn) [compound 914, 2-(4-(benzofuran-5-yl)phenyl)-3-(((S)-1-(methylsulfonyl)pyrrolidin-3-yl)methyl)-7-oxa-1,3-diazaspiro[4.4]non-1-en-4-one], the inhibition at 10 µM worked out at 1% and the IC50 was above 10 µM.
`COC(=O)N1CC[C@@H](CN2C(=O)C3(CCOC3)N=C2c2ccc(-c3ccc4c(cnn4C)c3)cc2)C1` (stereo partly drawn) [compound 915, (3S)-methyl 3-((2-(4-(1-methyl-1H-indazol-5-yl)phenyl)-4-oxo-7-oxa-1,3-diazaspiro[4.4]non-1-en-3-yl)methyl)pyrrolidin-1-carboxylate]: the inhibition at 10 µM turned out to be 11% and the IC50 is above 10 µM.
As to `COC(=O)N1CC[C@@H](CN2C(=O)C3(CN(C(=O)OC)C3)N=C2c2ccc(-c3ccc4c(cnn4C)c3)cc2)C1` [compound 916, (S)-methyl 7-((1-(methoxycarbonyl)pyrrolidin-3-yl)methyl)-6-(4-(1-methyl-1H-indazol-5-yl)phenyl)-8-oxo-5,7-triazaspiro[3.4]oct-5-ene-2-carboxylate], the inhibition at 10 µM was 20% and the IC50 was above 10 µM.
Take `COC(=O)N1CC2(C1)N=C(c1ccc(-c3ccc4c(cnn4C)c3)cc1)N(C[C@@H]1CCN(S(C)(=O)=O)C1)C2=O` [compound 917, (S)-methyl 6-(4-(1-methyl-1H-indazol-5-yl)phenyl)-7-((1-(methylsulfonyl)pyrrolidin-3-yl)methyl)-8-oxo-2,5,7-triazaspiro[3.4]oct-5-ene-2-carboxylate]: the inhibition at 10 µM stood at 2% and the IC50 was above 10 µM.
For the compound `COC(=O)N1CC2(C1)N=C(c1ccc(-c3ccc(-c4cnn(C)c4)cc3)cc1)N(C[C@@H]1CCN(C(=O)C(F)(F)F)C1)C2=O` [compound 919, (R)-methyl 6-(4′-(1-methyl-1H-pyrazol-4-yl)-[1,1′-biphenyl]-4-yl)-8-oxo-7-((1-(2,2,2-trifluoroacetyl)pyrrolidin-3-yl)methyl)-2,5,7-triazaspiro[3.4]oct-5-ene-2-carboxylate], the inhibition at 10 µM worked out at 12% and the IC50 is above 10 µM.
Turning to `O=C(c1nccs1)N1CC[C@@H](CN2C(=O)C3(CCOC3)N=C2c2ccc(-c3ccc4cccnc4c3)cc2)C1` (stereo partly drawn) [compound 920, 2-(4-(quinolin-7-yl)phenyl)-3-(((R)-1-(thiazole-2-carbonyl)pyrrolidin-3-yl)methyl)-7-oxa-1,3-diazaspiro[4.4]non-1-en-4-one], the inhibition at 10 µM stood at 35% and the IC50 was above 10 µM.
The corresponding values for `Cn1cc(-c2ccc(-c3ccc(C4=NC5(CCOCC5)C(=O)N4CC4CN(S(C)(=O)=O)C4)cc3)cc2)cn1` [compound 921, 2-(4′-(1-methyl-1H-pyrazol-4-yl)-[1,1′-biphenyl]-4-yl)-3-((1-(methylsulfonyl)azetidin-3-yl)methyl)-8-oxa-1,3-diazaspiro[4.5]dec-1-en-4-one] are -7% and above 10 µM.
As for `COC(=O)N1CC2(C1)N=C(c1ccc(-c3ccc(-c4cnn(C)c4)cc3)cc1)N(C[C@@H]1CCN(C(=O)N3CCCC3)C1)C2=O` [compound 924, (S)-methyl 6-(4′-(1-methyl-1H-pyrazol-4-yl)-[1,1′-biphenyl]-4-yl)-8-oxo-7-((1-(pyrrolidine-1-carbonyl)pyrrolidin-3-yl)metrhyl)-2,5,7-triazaspiro[3.4]oct-5-ene-2-carboxylate], the inhibition at 10 µM was 41% and the IC50 is above 10 µM.
`O=C(C1CC1)N1CCC[C@@H](CN2C(=O)C3(CC3)N=C2c2ccc(-c3ccc(O)cc3)cc2)C1` [compound 925, (R)-6-((1-(cyclopropanecarbonyl)piperidin-3-yl)methyl)-5-(4′-hydroxy-[1,1′-biphenyl]-4-yl)-4,6-diazaspiro[2.4]hept-4-en-7-one]: the inhibition at 10 µM amounted to 5% and the IC50 is above 10 µM.
For `Cn1ncc2cc(-c3ccc(C4=NC5(CCOCC5)C(=O)N4C[C@@H]4CCN(S(C)(=O)=O)C4)cc3)ccc21` [compound 926, (S)-2-(4-(1-methyl-1H-indazol-5-yl)phenyl)-3-((1-(methylsulfonyl)pyrrolidin-3-yl)methyl)-8-oxa-1,3-diazaspiro[4.5]dec-1-en-4-one], the inhibition at 10 µM is -8% and the IC50 was above 10 µM.
For `COC(=O)N1CC(CN2C(=O)C3(CCOC3)N=C2c2ccc(-c3ccc(-c4cnn(C)c4)cc3)cc2)C1` (stereo not drawn) [compound 927, methyl 3-((2-(4′-(1-methyl-1H-pyrazol-4-yl)-[1,1′-biphenyl]-4-yl)-4-oxo-7-oxa-1,3-diazaspiro[4.4]non-1-en-3-yl)methyl)azetidine-1-carboxylate], the inhibition at 10 µM is -2% and the IC50 is above 10 µM.
The corresponding values for `COC(=O)N1CC(CN2C(=O)C3(CCOCC3)N=C2c2ccc(-c3ccc4occc4c3)cc2)C1` [compound 928] are 10% and above 10 µM.
Turning to `COC(=O)N1CC2(C1)N=C(c1ccc(-c3ccc(-c4cnn(C)c4)cc3)cc1)N(C[C@@H]1CCN(C(=O)c3nccs3)C1)C2=O` [compound 929, (R)-methyl 6-(4′-(1-methyl-1H-pyrazol-4-yl)-[1,1′-biphenyl]-4-yl)-8-oxo-7-((1-(thiazole-2-carbonyl)pyrrolidin-3-yl)methyl)-2,5,7-triazaspiro[3.4]oct-5-ene-2-carboxylate], the inhibition at 10 µM was 6% and the IC50 is above 10 µM.
As to `O=C(c1nccs1)N1CC(CN2C(=O)C3(CCOC3)N=C2c2ccc(-c3ccc4cccnc4c3)cc2)C1` (stereo not drawn) [compound 930, 2-(4-(quinolin-7-yl)phenyl)-3-((1-(thiazole-2-carbonyl)azetidin-3-yl)methyl)-7-oxa-1,3-diazaspiro[4.4]non-1-en-4-one], the inhibition at 10 µM is -14% and the IC50 is above 10 µM.
Taken in the same sequence, the figures for `COC(=O)N1CC[C@@H](CN2C(=O)C3(CN(C(=O)OC)C3)N=C2c2ccc(-c3ccc4occc4c3)cc2)C1` [compound 931, (S)-methyl 6-(4-(benzofuran-5-yl)phenyl)-7-((1-(methoxycarbonyl)pyrrolidin-3-yl)methyl)-8-oxo-2,5,7-triazaspiro[3.4]oct-5-ene-2-carboxylate] were 31% and above 10 µM.
Turning to `O=C(c1nccs1)N1CC(CN2C(=O)C3(CCOC3)N=C2c2ccc(-c3ccc4occc4c3)cc2)C1` (stereo not drawn) [compound 932, 2-(4-(benzofuran-5-yl)phenyl)-3-((1-(thiazole-2-carbonyl)azetidin-3-yl)methyl)-7-oxa-1,3-diazaspiro[4.4]non-1-en-4-one], the inhibition at 10 µM amounted to 2% and the IC50 was above 10 µM.
`Cn1ncc2cc(-c3ccc(C4=NC5(CCOC5)C(=O)N4C[C@@H]4CCN(S(C)(=O)=O)C4)cc3)ccc21` (stereo partly drawn) [compound 933, 2-(4-(1-methyl-1H-indazol-5-yl)phenyl)-3-(((S)-1-(methylsulfonyl)pyrrolidin-3-yl)methyl)-7-oxa-1,3-diazaspiro[4.4]non-1-en-4-one]: the inhibition at 10 µM worked out at 5% and the IC50 was above 10 µM.
As to `O=C(c1nccs1)N1CCC(CN2C(=O)C3(CCOC3)N=C2c2ccc(-c3ccc4occc4c3)cc2)C1` (stereo not drawn) [compound 934, 2-(4-(benzofuran-5-yl)phenyl)-3-((1-(thiazole-2-carbonyl)pyrrolidin-3-yl)methyl)-7-oxa-1,3-diazaspiro[4.4]non-1-en-4-one], the inhibition at 10 µM was 27% and the IC50 was above 10 µM.
Regarding `Cn1ncc2cc(-c3ccc(C4=NC5(CCOCC5)C(=O)N4CC4CN(C(=O)C(F)(F)F)C4)cc3)ccc21` [compound 935, 2-(4-(1-methyl-1H-indazol-5-yl)phenyl)-3-((1-(2,2,2-trifluoroacetyl)azetidin-3-yl)methyl)-8-oxa-1,3-diazaspiro[4.5]dec-1-en-4-one], the inhibition at 10 µM is -2% and the IC50 was above 10 µM.
Turning to `COC(=O)N1CC(CN2C(=O)C3(CCOCC3)N=C2c2ccc(-c3ccc(-c4cnn(C)c4)cc3)cc2)C1` [compound 936, methyl 3-((2-(4′-(1-methyl-1H-pyrazol-4-yl)-[1,1′-biphenyl]-4-yl)-4-oxo-8-oxa-1,3-diazaspiro[4.5]dec-1-en-3-yl)methyl)azetidine-1-carboxylate], the inhibition at 10 µM amounted to 7% and the IC50 was above 10 µM.
In the case of `COC(=O)N1CC(CN2C(=O)C3(CCOCC3)N=C2c2ccc(-c3ccc4c(cnn4C)c3)cc2)C1` [compound 941, methyl 3-((2-(4-(1-methyl-1H-indazol-5-yl)phenyl)-4-oxo-8-oxa-1,3-diazaspiro[4.5]dec-1-en-3-yl)methyl)azetidine-1-carboxylate], the inhibition at 10 µM was 5% and the IC50 was above 10 µM.
Taken in the same sequence, the figures for `CS(=O)(=O)N1CC(CN2C(=O)C3(CCOC3)N=C2c2ccc(-c3ccc4cccnc4c3)cc2)C1` (stereo not drawn) [compound 942, 3-((1-(methylsulfonyl)azetidin-3-yl)methyl)-2-(4-(quinolin7-yl)phenyl)-7-oxa-1,3-diazaspiro[4.4]non-1-en-4-one] were 11% and above 10 µM.
The corresponding values for `Cn1ncc2cc(-c3ccc(C4=NC5(CCOC5)C(=O)N4CC4CN(S(C)(=O)=O)C4)cc3)ccc21` (stereo not drawn) [compound 944, 2-(4-(1-methyl-1H-indazol-5-yl)phenyl)-3-((1-(methylsulfonyl)azetidin-3-yl)methyl)-7-oxa-1,3-diazaspiro[4.4]non-1-en-4-one] are 5% and above 10 µM.
Taken in the same sequence, the figures for `Cn1ncc2cc(-c3ccc(C4=NC5(CCOC5)C(=O)N4CC4CN(C(=O)N5CCCC5)C4)cc3)ccc21` (stereo not drawn) [compound 945, 2-(4-(1-methyl-1H-indazol-5-yl)phenyl)-3-((1-(pyrrolidine-1-carbonyl)azetidin-3-yl)methyl)-7-oxa-1,3-diazaspiro[4.4]non-1-en-4-one] were 38% and above 10 µM.

The inhibition is the drop in the measured response relative to a control, in per cent.
